Experimental data taken from patent US20110207764A1, “CYCLOPOLYSACCHARIDE COMPOSITIONS” (priority 2010, published 2011).

Experiment: Concentration of active ingredient dissolved in 60% (w/w) aqueous SBECD after filtration, determined by HPLC
Format: physicochemical
Settings: 0.2 micrometer filter
Method: 200 mg of coumarin were added to 4 g of 60% (w/w) aqueous SBECD, and the mixture was mixed at 34° C. for 48 hours, and then filtered through a 0.2 micrometer nylon filter to produce 44.3 mg/g coumarin solution, as determined by HPLC. 40 mg of cetylpiridinium chloride were added to the solution and mixed until completely dissolved, and the composition was filtered.
400 mg of ibuprofen were added to 4 g of 60% (w/w) aqueous SBECD, and the mixture was mixed at 34° C. for 48 hours, and then filtered through a 0.2 micrometer nylon filter to produce 78.1 mg/g ibuprofen solution, as determined by HPLC. 60 mg of triethanoloamine were added to the solution and mixed until completely dissolved, and the composition was filtered.
2 mg of paclitaxel were added to 4 g of 60% (w/w) aqueous SBECD, and the mixture was mixed at 34° C. for 48 hours, and then filtered through a 0.2 micrometer nylon filter to produce 0.4 mg/g paclitaxel solution, as determined by HPLC. 40 mg of heptakis(6-guanidino-6-deoxy)-beta-cyclodextrin were added to the solution and mixed until completely dissolved, and the composition was filtered.
200 mg of diindolylmethane were added to 4 g of 60% (w/w) aqueous SBECD, and the mixture was heated in boiling water bath for 1 hour, then kept at room temperature for 24 hours. The mixture was then filtered through a 0.2 micrometer nylon filter to produce 40.3 mg/g diindolylmethane solution, as determined by HPLC. 24 mg of octakis(6-guanidino-6-deoxy)-gamma-cyclodextrin were added to the solution and mixed until completely dissolved, and the composition was filtered.
10 mg of Semaxanib (3-((3,5-dimethyl-1H-pyrrol-2-yl)methylene)indolin-2-one) were added to 4 g of 60% (w/w) aqueous SBECD, and the mixture was heated in boiling water bath for 1 hour, then kept at room temperature for 24 hours. The mixture was then filtered through a 0.2 micrometer nylon filter to produce 1.3 mg/g semaxanib solution, as determined by HPLC. 80 mg of PI2080 (polyethyleneimine 2000 conjugated with PEG 8000) were added and mixed until completely dissolved, and the composition was filtered.
40 mg of xanthone (9H-xanthen-9-one) were added to 4 g of 60% (w/w) aqueous SBECD, and the mixture was heated in boiling water bath for 1 hour, then kept at room temperature for 24 hours. The mixture was filtered through a 0.2 micrometer nylon filter to produce 8.2 mg/g xanthone solution, as determined by HPLC. 120 mg of low molecular weight protamine were added and mixed until completely dissolved, and the composition was filtered.
100 mg of carvedilol were added to 4 g of 60% (w/w) aqueous SBECD, and the mixture was heated in boiling water bath for 1 hour, then kept at room temperature for 24 hours. The mixture was filtered through a 0.2 micrometer nylon filter to produce 22.6 mg/g carvedilol solution, as determined by HPLC. 120 mg of hexakis(6-amino-6-deoxy)-alpha-cyclodextrin were dissolved in 2 mL water, and the two solutions mixed until completely homogenous. The product solution was freeze-dried to form an amorphous solid.
10 mg of talidomid were added to 4 g of 60% (w/w) aqueous SBECD, and the mixture was mixed at 34° C. for 48 hours. The mixture was filtered through a 0.2 micrometer nylon filter to produce 1.7 mg/g talidomid solution, as determined by HPLC. 120 mg of heptakis(6-amino-6-deoxy)-beta-cyclodextrin were added and mixed until completely dissolved, and the composition was filtered.
2 mg of SN-38 (7-Ethyl-10-hydroxy-camptothecin) were added to 4 g of 60% (w/w) aqueous SBECD, and the mixture was heated in boiling water bath for 1 hour, then kept at room temperature for 24 hours. The mixture was filtered through a 0.2 micrometer nylon filter to produce 0.39 mg/g SN-38 solution, as determined by HPLC. A solution of 60 mg of heptakis(6-amino-6-deoxy)-beta-cyclodextrin in 2 mL water was added to the SN-38 solution, and mixed until the resulting solution was completely homogenous. The composition was filtered. […]

[1] = boiling water bath 1 hour, room temperature 24 hours

SMILES	concentration of active ingredient in filtered solution [1] [mg/g]	concentration of active ingredient in filtered solution (mixed at 34° C. for 48 hours) [mg/g]
CCc1c2c(nc3ccc(O)cc13)-c1cc3c(c(=O)n1C2)COC(=O)[C@]3(O)CC [SN-38, 7-Ethyl-10-hydroxy-camptothecin]	0.39	–
COc1ccccc1OCCNCC(O)COc1cccc2[nH]c3ccccc3c12 (stereo not drawn) [carvedilol]	22.6	–
O=c1ccc2ccccc2o1 [coumarin]	–	44.3
CC(C)Cc1ccc(C(C)C(=O)O)cc1 (stereo not drawn) [ibuprofen]	–	78.1
CC(=O)[C@@]1(O)CC[C@H]2[C@@H]3C=C(C)C4=CC(=O)CC[C@]4(C)[C@H]3CC[C@@]21C [megesterol]	4.3	–
CC(=O)O[C@H]1C(=O)[C@@]2(C)[C@H]([C@H](OC(=O)c3ccccc3)[C@]3(O)C[C@H](OC(=O)[C@H](O)[C@@H](NC(=O)c4ccccc4)c4ccccc4)C(C)=C1C3(C)C)[C@]1(OC(C)=O)CO[C@@H]1C[C@@H]2O [paclitaxel]	–	0.4
Cc1cc(C)c(C=C2C(=O)Nc3ccccc32)[nH]1 [semaxanib, 3-((3,5-dimethyl-1H-pyrrol-2-yl)methylene)indolin-2-one]	1.3	–
O=C1CCC(N2C(=O)c3ccccc3C2=O)C(=O)N1 (stereo not drawn) [talidomid]	–	1.7
O=c1c2ccccc2oc2ccccc12 [xanthone, 9H-xanthen-9-one]	8.2	–
